The source of these data is article PMC4882559, “Novel Azetidine-Containing TZT-1027 Analogues as Antitumor Agents” (Marine Drugs, 2016).

Data set [1] concerns A549 human lung carcinoma cell lines. The data set can be described thus: Cancer cell proliferation inhibition (MTT assay), A549. Format: cell-based. How it is done: (§1) The following cell lines were used for the screening stage, obtained from American Type Culture Collection (ATCC, Manassas, VA, USA); HCT116 human colon cancer cells and A549 human lung carcinoma cell lines were cultured in RPMI 1640 medium supplemented with 10% FBS. Cell cultures were maintained in a humidified atmosphere of 5% CO2 at 37 °C. Cells were seeded at 2000 cells per well in 96-well plates in a volume of 200 μL per well. The test compounds were dissolved in DMSO and diluted with culture medium to different concentrations. After seeding for 24 h, the medium was removed, and […] of the test compound solution was added in duplicates and incubation continued for 72 h at 37 °C in a humidified atmosphere containing 5% CO2. Control cells were treated with vehicle alone. During the last 4 h of incubation, the cells were exposed to tetrazolium dye (MTT) solution (5 mg/mL, […] per well). The generated formazan crystals were dissolved in […] of dimethyl sulfoxide (DMSO), and the absorbance was read spectrophotometrically at 570 nm using an enzyme-linked immunosorbent assay plate reader. The data was calculated using Graph Pad Prism version 5.0 (GraphPad Softwrae, La Jolla, CA, USA). The IC50s were fitted using a non-linear regression model with a sigmoidal dose response.
(In general: Formazan colour is commonly taken as a measure of viable cells.)

Data set [2] deals with Human A549 xenograft. The data set can be described thus: In vivo efficacy study, A549 xenograft model. The following applies: 2 mg/kg iv once a day; for Tumor volume: n = 6, mean (SD on next line); for Relative tumor volume: RTV = Vt/V0, n = 6, mean ± SD. The arrangement: species or system BALB/c athymic mice. From the text: Pathogen-free, 4–6 week-old, female BALB/c athymic mice (Shanghai SCXK Laboratory Animal Technology Co. Ltd., Shanghai, China) were housed under sterile conditions. Human A549 xenograft was established in the right flanks of athymic mice according to the protocol of the National Cancer Institute. When the tumor reached a volume of 100 mm^3, the mice were randomly assigned into control (n = 6 per group) and treatment groups (n = 6 per group). Control group were given lactate buffer, and treatment groups were iv administered with tested compounds. The size of tumor was measured individually on the indicated days. Tumor volume (V) was calculated as V = (length × width^2)/2. The individual relative tumor volume (RTV) was calculated as follows: RTV = Vt/V0, where Vt represented the last tumor size measurement and V0 represented the pre-dosing tumor size measurement. The animal experimental protocols were approved by the Animal Ethics Committee of School of Pharmacy, Fudan University and the mice were treated in accordance with international animal ethics guidelines.

For data set [3] the following is noted: dose of 4 mg/kg; cited from earlier work. How it is done:
Further in vivo antitumor activities of 1a was evaluated in A549 xenograft models in mice via tail vein intravenous injection for 22 days. […] Considering of that, the maximum dose of 1a was chosen as 5 mg/kg. […] However, compound 1a could not achieve effective inhibition at all the dose levels (Figure 3b). TZT-1027 (2 mg/kg/day) inhibited tumor growth by 61% over the 22-day administration schedule, howe ... || In summary, we described the design and synthesis of nine TZT-1027 analogues based on the conformation restriction strategy. 3-Aryl-zetidines were used to replace the phenylethyl group at C-terminus. Two human cancer cell lines (A549, HCT116) were used to evaluate the potency of the synthesized compounds. […] Compound 1a could not achieve effective inhibition in A549 xenograft models at different dose levels.

Data set [4] relates to HCT116 human colon cancer cells. The data set can be described thus: Cancer cell proliferation inhibition (MTT assay), HCT116. In kind it is cell-based. Conditions: Homo sapiens, HCT-116, 72 h incubation, mean ± SD of at least three independent experiments. How it is done: as §1
The nature of data set [5]: Liver microsomes metabolic stability, human.
Data set [6] is described as follows: Liver microsomes metabolic stability, rat. For orientation: Liver microsomes are vesicles of endoplasmic reticulum, rich in cytochrome P450 enzymes.
A short description of data set [7]: Liver microsomes metabolic stability, mouse.

With `CC[C@H](C)[C@@H]([C@@H](CC(=O)N1CCC[C@H]1[C@H](OC)[C@@H](C)C(=O)N1CC(c2ccccc2C(C)C)C1)OC)N(C)C(=O)[C@@H](NC(=O)[C@@H](C(C)C)N(C)C)C(C)C` [1d, (S)-2-((R)-2-(Dimethylamino)-3-methylbutanamido)-N-((3R,4S,5S)-1-((S)-2-((1R,2R)-3-(3-(2-isopropylphenyl)azetidin-1-yl)-1-methoxy-2-methyl-3-oxopropyl)pyrrolidin-1-yl)-3-methoxy-5-methyl-1-oxoheptan-4-yl)-N,3-dimethylbutanamide], the “loss of potency against A549 cell lines” value in data set [1] (substituted phenyl analogues compared with 1a) is listed as “about 60 fold”.
For the molecule `CC[C@H](C)[C@@H]([C@@H](CC(=O)N1CCC[C@H]1[C@H](OC)[C@@H](C)C(=O)NCCc1ccccc1)OC)N(C)C(=O)[C@@H](NC(=O)[C@H](C(C)C)N(C)C)C(C)C` [TZT-1027], the Tumor volume in data set [2] (day 1) is given as 147.31 mm3; in data set [2] (day 4) it was 182.59 mm3; in data set [2] (day 7) it was 196.64 mm3; in data set [2] (day 10), 232.81 mm3; in data set [2] (day 13) it was 275.81 mm3; in data set [2] (day 16), 301.7 mm3. Also, the Tumor volume is given as 346.59 mm3 in data set [2] (day 19) and 363.71 mm3 in data set [2] (day 22). Also, the Relative tumor volume in data set [2] (day 7) is 1.48 ± 0.64; in data set [2] (day 10), 1.73 ± 0.78; in data set [2] (day 13), 2.09 ± 0.9; in data set [2] (day 16) it was 2.3 ± 0.9; in data set [2] (day 19) it was 2.6 ± 1.33; in data set [2] (day 22), 2.66 ± 1.11. Moreover, the “toxicity of a dose” value in data set [3] was “seemed to be toxic”.
For orientation: IC50 means the concentration that gives 50% inhibition. Lower therefore signals inhibition by little substance. Regarding `CC(=O)O[C@@]12CO[C@@H]1C[C@H](O)[C@@]1(C)C(=O)[C@H](O)C3=C(C)[C@@H](OC(=O)[C@H](O)[C@@H](NC(=O)OC(C)(C)C)c4ccccc4)C[C@@](O)([C@@H](OC(=O)c4ccccc4)[C@H]21)C3(C)C` [Docetaxel, reference compound], the IC50 was 0.3 ± 0.1 nM in data set [4] and 23.5 ± 9.5 nM in data set [1] (Homo sapiens, A549, MTT assay, 72 h incubation, mean ± SD of at least three independent experiments).
The term half-life denotes the time in which the quantity being followed falls by half. Low values mean rapid decline, high ones slow decline. As to `O=C(c1ccc(F)cc1)C1CCN(CCn2c(=O)[nH]c3ccccc3c2=O)CC1` [Ketanserin, ketanserin, reference compound], the Clint in data set [5] (Human, apparent intrinsic clearance, 1 μM) turned out to be 39.63 mL/min/kg; in data set [6] (Rat, apparent intrinsic clearance, 1 μM), 159.00 mL/min/kg; in data set [7] (Mouse, apparent intrinsic clearance, 1 μM), 402.92 mL/min/kg. For the same molecule, the half-life at 1 μM in data set [5] (human, liver microsomes) amounted to 43.9 min; in data set [6] (rat, liver microsomes) it was 15.6 min; in data set [7] (mouse, liver microsomes) it was 13.5 min.
